Test results taken from PubChem BioAssay (NCI).
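96-well plates; 48 h exposure; 5 concentrations. Endpoints by linear interpolation between flanking doses. Not reached: highest tested concentration assigned. The concentration for full growth arrest is given as TGI.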

Key:
Experiment in all cases: NCI anticancer screen, dose series, 48 h
[1] = tested on: EKVX NSCLC
[2] = tested on: IGROV1 ovarian
[3] = tested on: NCI-H460 lung
[4] = tested on: A549 NSCLC
[5] = tested on: SF-539 CNS
[6] = tested on: TK-10 renal
[7] = tested on: HT29 colon
[8] = tested on: DU-145 prostate
[9] = tested on: HCT-116 colon
[10] = tested on: MDA-MB-231 breast
[11] = tested on: 786-0 renal
[12] = tested on: SN12C renal
[13] = tested on: K-562 leukemia
[14] = tested on: CAKI-1 renal
[15] = tested on: LOX IMVI melanoma

SMILES | TGI [1] | TGI [2] | TGI [3] | TGI [4] | TGI [5] | TGI [6] | TGI [7] | TGI [8] | TGI [9] | TGI [10] | TGI [11] | TGI [12] | TGI [13] | TGI [14] | TGI [15]
Cc1cc2occ(S(=O)(=O)NC(=O)Nc3ccc(Cl)cc3)c(=O)c2c(=O)o1 | > 100 µM | > 100 µM | > 100 µM | > 100 µM | > 100 µM | > 100 µM | > 100 µM | > 100 µM | > 100 µM | > 100 µM | > 100 µM | > 100 µM | > 100 µM | > 100 µM | > 100 µM
S=c1[nH]nc(CCCCCCCCc2n[nH]c(=S)o2)o1 | > 100 µM | > 100 µM | > 100 µM | > 100 µM | > 100 µM | > 100 µM | > 100 µM | > 100 µM | > 100 µM | > 100 µM | > 100 µM | > 100 µM | > 100 µM | > 100 µM | > 100 µM
O=C(NCc1ccccc1Cl)c1c(O)c2ccccc2[nH]c1=O | > 100 µM | 67.2 µM | > 100 µM | > 100 µM | > 100 µM | > 100 µM | > 100 µM | > 100 µM | > 100 µM | 45.3 µM | 36.5 µM | > 100 µM | > 100 µM | 96.6 µM | > 100 µM
CCOC(=O)c1cn(CC)c2ccc3c(c2c1=O)S(=O)(=O)C=C3 | > 100 µM | > 100 µM | > 100 µM | > 100 µM | > 100 µM | > 100 µM | > 100 µM | > 100 µM | > 100 µM | > 100 µM | > 100 µM | > 100 µM | > 100 µM | > 100 µM | > 100 µM
COc1cccc(CCCNC(=O)Cc2ccccc2CO)c1 | > 100 µM | > 100 µM | > 100 µM | > 100 µM | > 100 µM | > 100 µM | > 100 µM | > 100 µM | > 100 µM | > 100 µM | > 100 µM | > 100 µM | > 100 µM | > 100 µM | > 100 µM
COC(=O)[C@@H]1COC(=O)N1 | > 100 µM | > 100 µM | > 100 µM | > 100 µM | > 100 µM | > 100 µM | > 100 µM | > 100 µM | > 100 µM | > 100 µM | > 100 µM | > 100 µM | > 100 µM | > 100 µM | > 100 µM
Cc1ccc(NCCN(C)C)c2c(=O)c3cc(O)ccc3sc12 | 27.6 µM | 17.2 µM | 5.72 µM | 8.08 µM | 10.4 µM | 33.9 µM | 8.2 µM | 15.6 µM | 8.79 µM | 4.6 µM | 9.07 µM | 14 µM | 11.7 µM | 11.6 µM | 7.84 µM
Cc1cc2c(cc1Cl)Sc1n[nH]c(=O)n1S2(=O)=O | > 100 µM | > 100 µM | > 100 µM | > 100 µM | > 100 µM | > 100 µM | > 100 µM | > 100 µM | > 100 µM | > 100 µM | > 100 µM | > 100 µM | > 100 µM | > 100 µM | > 100 µM
COc1ccc(N=Nc2c(N)nn3c(SC)c(C#N)c(N)nc23)cc1 | 21.3 µM | 4.19 µM | 34.7 µM | 36.9 µM | 34.6 µM | 33.6 µM | 25.5 µM | 19.3 µM | 28.4 µM | 7.02 µM | 14.2 µM | 19.1 µM | 4.65 µM | 23.5 µM | 3.12 µM
Oc1ccc(SCc2cc(O)ccc2O)cc1 | 41.7 µM | 25.6 µM | > 86.7 µM | > 100 µM | 12.4 µM | 33.9 µM | > 100 µM | > 100 µM | 26.1 µM | 36.4 µM | 36.4 µM | 28.1 µM | > 100 µM | 19.7 µM | > 53.1 µM
O=C1C=C/C(=C/[C@H]2SSC=C[C@]23C=CC(=O)C3)C1 | 63.6 µM | 48 µM | > 94.3 µM | 63.2 µM | 61.3 µM | > 64.7 µM | 32.2 µM | 47.3 µM | 22 µM | > 83.1 µM | 28.7 µM | 52.3 µM | > 100 µM | 24.8 µM | > 48.7 µM
Cc1cc(=O)n2nc(CSc3nnc(Sc4cc(O)ccc4O)s3)sc2n1 | > 100 µM | > 100 µM | > 100 µM | > 100 µM | > 100 µM | > 100 µM | > 100 µM | > 100 µM | 41.2 µM | 97.4 µM | > 100 µM | > 100 µM | 41.1 µM | > 100 µM | 36.3 µM
CC(C)[C@@H]1NC(=O)[C@@H]2N=C(O[C@H]2C)[C@H](C(C)C)NC(=O)C2N=C1O[C@H]2C | > 100 µM | > 100 µM | > 100 µM | > 100 µM | > 100 µM | > 100 µM | > 100 µM | > 100 µM | > 100 µM | > 100 µM | > 100 µM | > 100 µM | > 100 µM | > 100 µM | > 100 µM
C#CCOC(=O)C(=[N+]=[N-])C(=O)CC(C)C | > 10 µM | > 10 µM | > 10 µM | > 10 µM | > 10 µM | > 10 µM | > 10 µM | > 10 µM | > 10 µM | > 10 µM | > 10 µM | > 10 µM | > 10 µM | > 10 µM | > 10 µM
O=C(O)CCC1NC(/C(=C/c2ccccc2O)NC(=O)c2ccccc2)OC1=O (stereo not given) | > 100 µM | > 100 µM | > 100 µM | > 100 µM | > 100 µM | > 100 µM | > 100 µM | > 100 µM | > 100 µM | > 100 µM | > 100 µM | > 100 µM | > 100 µM | > 100 µM | > 100 µM
